Reference: publication PMC12754760, “Size-Controlled Mesoporous Silica Nanoparticles via Template Nanoarchitectonics from a Deferoxamine Derivative for Enhanced Blood–Brain Barrier Permeability and Neuroprotective Chelation Therapy” (ACS Applied Materials & Interfaces, 2025)
Where a name gives a salt, the structure may show the parent alone.

Tests used:
[1] = in vivo; cited from earlier work
[2] = Caco-2 monolayer drug transport (in vitro BBB model); format: in vitro ADME; conditions: human
Experimental: The preparation of the Caco-2 cell monolayer as an in vitro BBB model was performed as follows: Caco-2 cells were seeded at a density of 10.000 cells per well on a Millicell 96-well cell culture plate. The culture medium was replaced every 48 h. The formation of the monolayer was monitored by measuring the transepithelial electrical resistance (TEER) using an epithelial voltohmmeter (Millicell-ERS). After 21 days of culture, the Caco-2 cell monolayers were used for permeability experiments. All TEER values measured immediately before the experiments were above 300 Ω·cm^2, confirming the integrity of the monolayer.
Drug transport experiments were carried out following the previously published protocol. Briefly, after 21 days of culture, the medium was removed, and the cells were washed twice with Hank’s Balanced Salt Solution (HBSS) to eliminate any residual culture medium. Subsequently, the wells were refilled with HBSS and incubated at 37 °C for 30 min. After incubation, the HBSS was removed, and solutions containing the compound were added either to the filter well (apical side) or to the receiver plate (basolateral side), while HBSS without the compound was added to the corresponding opposite side. The final concentration of the compounds was 10^–4 M. The plates were then incubated at 37 °C for 2 h. At the end of the incubation period, the samples from both compartments were collected and analyzed by UV–vis spectroscopy. The apparent permeability coefficient (Papp), expressed in nm·s^–1, was calculated using the following equation: 1 Papp=[VA/(area×time)]×([drug]acceptor/[drug]receptor) where VA is the volume (mL) in the acceptor well, area is the surface area of the membrane (0.11 cm^2 of the well), time is the total transport time (7200 s), and [drug] is drug concentration measured by UV–vis spectroscopy.

[3] = Cell viability assay SH-SY5Y (MTT); format: cell-based; conditions: human, SH-SY5Y cells
Experimental: Briefly, 10.000 BV-2 cells/well in 100 μL of culture medium were seeded into 96-well plates (transparent plate, clear bottom; Costar, Corning Inc.) and incubated overnight at 37 °C in 5% CO2. Stock solutions of the drug were preparate in DMSO, keeping it concentration <1% in the experiments. […] Stock solutions were prepared just before their use. Control wells with DMSO were used to evaluate the possible cytotoxicity of the solvent. After 72 h incubation, CCK-8 (10 μL) was added to each well, and after 3–4 h of incubation at 37 °C, the absorbance values at λ = 450 nm were determined on the Tecan Infinite 200 microplate reader. The cytotoxicity assay for SH-SY5Y was conducted by seeding cells at a density of 40.000 cells/well for 24 h in 96-well plate and incubated overnight. […] The plate was incubated for 24 h. After this time, MTT (10 μL) was added to each well, and after 3–4 h of incubation at 37 °C, the absorbance values at λ = 540 nm were determined on the Tecan Infinite 200 microplate reader.
Data were plotted as % cell viability, normalized vs untreated cells by using GraphPad Prism software version 7.05. Values are expressed as the mean ± SEM of at least three independent experiments. […]

For `CC(=O)N(O)CCCCCNC(=O)CCC(=O)N(O)CCCCCNC(=O)CCC(=O)N(O)CCCCCN` [DFO, Deferoxamine mesylate], the Plasma half-life [1] is listed as 20 to 30 min, the Papp A→B at 2 h ([2]; apical-to-basolateral, 10^–4 M, 2 h, 37 °C) is listed as 76.1 ×10⁻⁶ cm/s and the Papp B→A at 2 h ([2]; basolateral-to-apical, 10^–4 M, 2 h, 37 °C) is listed as 162 ×10⁻⁶ cm/s. The efflux ratio at 2 h ([2]; read-out: BA/AB permeability ratio) was 2.13 and the viability at 24 h, 100 µM [3] was roughly 100%.
